Values after ≈ are worked out from the molar mass of the structure shown.
Key:
Type in all cases: functional
Settings in all cases: Homo sapiens, read-out: LD50 (the source's name)
HeLa = test: Tested for its in vitro cytotoxicity against Hela cells
HEp-2 = test: Tested for its in vitro cytotoxicity against HEP-2 cells
COLO 205 = test: Tested for its in vitro cytotoxicity against COLO-205 cells
[1] = Tested for its in vitro cytotoxicity against KB cells

Row | Structure (SMILES) | CC50 (HeLa) [µg/mL] | CC50 (HEp-2) [µg/mL] | CC50 (COLO 205) [µg/mL] | CC50 [1] [µg/mL]
1 | NCCCSCC(COc1ccc(NC(=O)c2cc(-c3ccccc3)nc3ccccc23)cc1)SCCCN (stereo unspecified) | 6.18 (≈ 11 µM) | 1.92 (≈ 3.42 µM) | 5.2 (≈ 9.27 µM) | 
2 | NCCCSCC(COc1ccc(-c2ccccc2)cc1)SCCCN (stereo unspecified) | 0.68 (≈ 1.74 µM) | 1.45 (≈ 3.71 µM) | 1.05 (≈ 2.69 µM) | 0.92 (≈ 2.36 µM)
3 | NCCCSCC(COc1cccc(-c2ccccc2)c1)SCCCN (stereo unspecified) | 1.2 (≈ 3.07 µM) | 1.36 (≈ 3.48 µM) | 1.41 (≈ 3.61 µM) | 1.55 (≈ 3.97 µM)

From ChEMBL document CHEMBL1127211, “Biselectrostatic interaction with DNA as potential anti-turmor agents: novel 2,11-diamino-5,8-dithiaundecane derivatives” (1993)
